Measured values: patent publication US20250002473A1, “QUINOXALINE DERIVED SULFONAMIDES WITH EGFR DEGRADATION ACTIVITIES AND THEIR USES THEREOF” (Accutar Biotechnology Inc., priority 2023, published 2025)
Like-named read-outs stand apart in the source and are kept apart here.

Tests used:
Format in all cases: cell-based
HCC827_DTC = assay: Cell growth inhibition assay (CellTiter-Glo), HCC827_DTC; settings: 72 h; Table 8; HCC827 expressing human EGFR Del19/T790M/C797S, endogenous EGFR knockout, three days
Protocol: (§1) HCC827_LTC and HCC827_DTC cell lines were generated by first transducing HCC827 cells (ATCC) with lentiviral particles expressing codon-optimized human EGFR L858R/T790M/C797S (LTC) mutant or Del19/T790M/C797S (DTC) mutant, and then selecting under 5 μg/ml puromycin treatment for a week. The endogenous EGFR alleles were subsequently abolished using the Alt-R™ CRISPR-Cas9 technology (Integrated DNA Technologies). Single clones of HCC827_LTC and HCC827_DTC were selected and validated for endogenous EGFR knockout using Sanger sequencing.
(§2) Cells were seeded in a 96-well plate (Corning 3610) with 90 μL of culture medium per well, and plates were incubated at 37° C. overnight. A 1,000× DMSO stock solution of the desired compound was prepared the following day. A compound dilution plate was prepared by diluting the stock solution 1:100 in the corresponding cell culture medium, 10 μL of the diluted compound solution was added to each 96-well plate well containing the seeded cells. Then, the cells were cultured at 37° C. for three days following compound treatment, 100 μL of CellTiter-Glo reagents (Promega G7573) was added to each well of the 96-well plate. The content of the wells was mixed by shaking continuously for 10 min, and luminescence was measured using Envision (PerkinElmer). The data were analyzed with GraphPad Prism 9 (see FIG. 50).
(§3) Table 6, Table 7, and Table 8 list the cell growth inhibition results, where Gls0 represents the compound concentration to cause 50% cell growth inhibition in comparison with DMSO.

A431 = assay: Cell growth inhibition assay (CellTiter-Glo), A431; settings: Homo sapiens, A-431, 72 h, A431 cells, three days, read-out: A431 GI50
In short: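 Cells were plated in 96-well plates (Corning 3610) at 90 μL of culture medium per well and incubated overnight at 37° C. The next day, a 1,000× DMSO compound stock was diluted 1:100 in cell culture medium, and 10 μL was added per well. After shaking for 10 min, luminescence was read on an Envision (PerkinElmer) reader.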

HCC827_LTC = assay: Cell growth inhibition assay (CellTiter-Glo), HCC827_LTC; settings: 72 h; Table 8; HCC827 expressing human EGFR L858R/T790M/C797S, endogenous EGFR knockout, three days
Protocol: as §1, §2, §3

NCI-H2073 = assay: Cell growth inhibition assay (CellTiter-Glo), NCI-H2073; settings: 72 h; Table 8; NCI-H2073 cells, three days
Protocol: as §2, with “Then, the cells were cultured at 37° C. for three days following compound treatment, 100 μL of CellTiter-Glo reagents (Promega G7573) was added to each well of the 96-well plate.” left out
as §3

HCC827 = assay: Cell growth inhibition assay (CellTiter-Glo), HCC827; settings: Homo sapiens, 72 h, Table 8, HCC827 cells, three days
Protocol: as §1, §2, §3

BaF3_ASV = assay: Cell growth inhibition assay (CellTiter-Glo), BaF3_ASV; settings: 72 h; Table 6; BaF3_ASV cells, three days, CellTiter-Glo; read-out: BaF3_ASV GI50
[1] = target: T1, BaF3_ASV (EGFR_A776inASV) (Homo sapiens, UniProt P00533, DUP767-769); assay: EGFR degradation assay (western blot), BaF3_ASV cells; settings: BaF3_ASV cells, compounds 24 h, western blot; read-out: BaF3_ASV DC50
T1 construct: expressed in transfected cells; host or cells: Ba/F3 (engineered)
In short: (§4)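 Cells seeded overnight, then exposed to compounds for 24 h; lysates run on western blot, EGFR probed with tubulin loading control and fluorescent secondary detection. DC50 = concentration giving 50% EGFR degradation.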

[2] = system: BaF3_DTC (EGFR_Exon19del/T790M/C797S); assay: EGFR degradation assay (western blot), BaF3_DTC cells; settings: BaF3_DTC cells (EGFR_Exon19del/T790M/C797S), compounds 24 h, western blot; read-out: BaF3_DTC DC50
In short: as §4

A431 (EGFR_WT) = target: T2, A431 (EGFR_WT) (Homo sapiens, UniProt P00533); assay: EGFR degradation assay (western blot), A431 cells; settings: compounds 24 h, western blot, read-out: A431 DC50
T2 construct: endogenous in cells; host or cells: A431, NCI-H2073, NCI-H292
Protocol: A431 (EGFR_WT), NCl-H2073 (EGFR_WT), NCl-H292 (EGFR_WT), BaF3_YVAM (Her2_A775insYVAM), BaF3_SVD (EGFR_D770insSVD), BaF3_ASV (EGFR_A776inASV), or BaF3_DTC (EGFR_Exon19del/T790M/C797S) cells were seeded in a 24-well plate at a density of 4×10^5 cells per well for EGFR WT cells and 8× cells per well for EGFR or Her2 mutant cells, and the plates were incubated overnight. The cells were treated with the desired compounds for 24 h. The culture medium was removed, and 100 μL of RIPA buffer (Beyotime, P0013B) containing 1% Protease Inhibitor Cocktail (Bimake, B14001), 1% Phosphatase Inhibitor Cocktail 2 (Sigma, P5726), and 1% Phosphatase Inhibitor Cocktail 3 (Sigma, P0044) were added to lyse the cells. Then, the cell lysates were transferred to 1.5 mL microcentrifuge tubes and centrifuged at 12,000 rpm and 4° C. for 30 min. The supernatants were transferred into new tubes, and the protein concentration was determined using the BCA protein quantification method. All samples were diluted to the same concentration using RIPA buffer, loading buffer was added, samples were denatured, and 15 μg of protein per lane was loaded onto a SurePAGE 4-20% Bis-Tris gel. Samples were separated via electrophoresis in MOPS running buffer at 180 V for 100 min. Then, proteins were transferred onto PVDF membranes using the MiniBlot™ Electrophoretic Transfer Cell Device (Beyotime, E6050). The membrane was blocked using block buffer (LI-COR 927-60001) to prevent non-specific binding. The membrane was incubated with primary antibodies (1:500 dilution, EGFR-CST4405, 1:2000 dilution, Tubulin-ABclonal #AC021) at 4° C. overnight. The membrane was washed three times with 1× TBST buffer for 15 min each. The membrane was incubated with secondary antibodies IRDye 680RD Goat anti-Rabbit IgG Secondary Antibody (1:2000 dilution, LI-COR 926-68071) and IRDye 800CW Goat anti-Mouse IgG Secondary Antibody (1:2000 dilution, LI-COR 926-32210). Finally, the membrane was washed again with 1× TBST buffer 3 times. Fluorescence was detected using the Odyssey CLx Imaging System, and the data were analyzed with Empiria Studio Software and GraphPad Prism 9. Table 4 and Table 5 list the degradation results, where the degradation potency is represented by DC50, the concentration of compounds to cause the degradation of 50% of the corresponding proteins. FIGS. 45-49 show western blots illustrating the EGFR degradative activity of exemplary Compound of the present disclosure and a comparator Compound A in different cell lines 24 h after administration. The Compound referred herein as Compound A is disclosed in WO 2022/171123 A1 (see, compound 133, page 46; published Aug. 18, 2022). WO 2022/171123 A1 discloses phosphine oxide derived molecules with EGFR degradation activity.

BaF3_DTC = assay: Cell growth inhibition assay (CellTiter-Glo), BaF3_DTC; settings: 72 h; Table 6; BaF3_DTC cells, three days, CellTiter-Glo; read-out: BaF3_DTC GI50

T1 sequence (P00533 with tags, fused parts or gaps DUP767-769): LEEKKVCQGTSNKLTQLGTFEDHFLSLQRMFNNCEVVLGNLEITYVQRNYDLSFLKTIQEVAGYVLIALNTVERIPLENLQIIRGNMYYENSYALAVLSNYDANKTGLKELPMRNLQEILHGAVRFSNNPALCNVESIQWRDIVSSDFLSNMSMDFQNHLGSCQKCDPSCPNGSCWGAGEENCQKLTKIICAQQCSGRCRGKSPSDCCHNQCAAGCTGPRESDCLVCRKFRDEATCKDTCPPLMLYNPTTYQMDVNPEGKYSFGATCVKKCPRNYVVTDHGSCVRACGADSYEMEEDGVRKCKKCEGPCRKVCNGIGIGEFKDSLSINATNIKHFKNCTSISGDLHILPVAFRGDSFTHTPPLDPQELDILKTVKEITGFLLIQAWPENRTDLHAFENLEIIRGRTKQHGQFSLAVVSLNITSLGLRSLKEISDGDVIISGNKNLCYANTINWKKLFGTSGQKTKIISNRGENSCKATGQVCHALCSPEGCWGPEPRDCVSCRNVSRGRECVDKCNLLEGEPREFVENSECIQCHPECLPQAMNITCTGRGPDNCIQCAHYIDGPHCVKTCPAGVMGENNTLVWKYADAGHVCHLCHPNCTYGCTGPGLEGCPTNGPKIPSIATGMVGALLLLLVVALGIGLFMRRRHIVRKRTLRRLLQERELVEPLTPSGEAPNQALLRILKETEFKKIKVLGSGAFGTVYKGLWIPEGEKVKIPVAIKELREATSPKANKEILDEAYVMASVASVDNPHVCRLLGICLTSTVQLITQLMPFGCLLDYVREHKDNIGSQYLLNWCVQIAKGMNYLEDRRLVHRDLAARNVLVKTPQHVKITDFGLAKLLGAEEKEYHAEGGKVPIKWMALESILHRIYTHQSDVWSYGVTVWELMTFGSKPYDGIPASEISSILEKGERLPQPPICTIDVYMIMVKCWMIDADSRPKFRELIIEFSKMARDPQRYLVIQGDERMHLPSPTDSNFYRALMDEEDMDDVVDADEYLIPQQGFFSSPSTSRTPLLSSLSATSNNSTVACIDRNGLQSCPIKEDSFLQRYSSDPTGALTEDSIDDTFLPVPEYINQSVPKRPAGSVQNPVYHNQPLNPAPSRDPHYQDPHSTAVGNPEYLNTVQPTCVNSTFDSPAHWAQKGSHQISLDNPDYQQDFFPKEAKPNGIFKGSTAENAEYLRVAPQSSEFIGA
T2 sequence (P00533 25-1210): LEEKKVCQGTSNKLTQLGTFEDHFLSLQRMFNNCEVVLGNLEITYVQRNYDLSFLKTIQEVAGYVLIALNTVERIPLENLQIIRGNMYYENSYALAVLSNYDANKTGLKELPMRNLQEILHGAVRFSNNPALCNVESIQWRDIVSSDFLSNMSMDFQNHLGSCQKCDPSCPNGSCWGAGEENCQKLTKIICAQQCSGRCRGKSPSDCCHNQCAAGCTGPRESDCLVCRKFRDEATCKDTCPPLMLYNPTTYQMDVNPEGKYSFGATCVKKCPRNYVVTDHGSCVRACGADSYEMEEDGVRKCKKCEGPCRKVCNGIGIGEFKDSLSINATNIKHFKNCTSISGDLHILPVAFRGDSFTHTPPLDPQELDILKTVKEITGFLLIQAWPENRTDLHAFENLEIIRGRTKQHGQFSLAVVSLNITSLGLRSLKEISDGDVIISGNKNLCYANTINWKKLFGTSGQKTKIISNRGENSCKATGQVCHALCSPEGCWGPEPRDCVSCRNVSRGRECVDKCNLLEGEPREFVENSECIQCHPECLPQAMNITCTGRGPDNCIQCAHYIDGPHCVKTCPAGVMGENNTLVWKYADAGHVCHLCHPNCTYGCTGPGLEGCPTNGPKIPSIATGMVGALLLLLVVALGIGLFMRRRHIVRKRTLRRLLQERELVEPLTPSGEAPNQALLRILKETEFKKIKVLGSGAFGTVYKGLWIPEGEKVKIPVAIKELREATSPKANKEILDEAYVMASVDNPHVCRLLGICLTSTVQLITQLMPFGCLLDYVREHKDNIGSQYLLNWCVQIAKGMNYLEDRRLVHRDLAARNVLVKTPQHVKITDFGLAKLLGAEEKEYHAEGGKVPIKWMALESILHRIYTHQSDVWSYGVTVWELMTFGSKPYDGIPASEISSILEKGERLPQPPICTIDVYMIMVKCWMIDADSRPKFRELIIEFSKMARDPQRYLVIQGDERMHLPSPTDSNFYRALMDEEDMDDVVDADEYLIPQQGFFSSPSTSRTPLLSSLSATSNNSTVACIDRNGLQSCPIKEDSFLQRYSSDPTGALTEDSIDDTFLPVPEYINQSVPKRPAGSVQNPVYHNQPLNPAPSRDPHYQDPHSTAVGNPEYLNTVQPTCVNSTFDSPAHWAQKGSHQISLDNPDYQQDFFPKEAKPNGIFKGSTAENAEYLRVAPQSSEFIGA

SMILES | GI50 (HCC827_DTC) | GI50 (A431; Table 8) | GI50 (HCC827_LTC) | GI50 (NCI-H2073) | GI50 (HCC827) | GI50 (BaF3_ASV) | GI50 (A431; Table 6, CellTiter-Glo) | DC50 [1] | DC50 [2] | DC50 (A431 (EGFR_WT)) | GI50 (BaF3_DTC)
COc1cc(N2CCN(C(=O)CN3CCN(c4ccc(NC5CCC(=O)NC5=O)cc4)CC3)CC2)c(-c2cnn(C)c2)cc1Nc1ncc(Br)c(Nc2ccc3nccnc3c2NS(C)(=O)=O)n1 (stereo not shown) [Compound 80, N-(6-((5-bromo-2-((4-(4-(2-(4-(4-((2,6-dioxopiperidin-3-yl)amino)phenyl)piperazin-1-yl)acetyl)piperazin-1-yl)-2-methoxy-5-(1-methyl-1H-pyrazol-4-yl)phenyl)amino)pyrimidin-4-yl)amino)quinoxalin-5-yl)methanesulfonamide] | 79.4 nM | 389 nM | 11 nM | 721 nM | 6.81 nM |  |  |  |  |  | 
CCc1cc(Nc2ncc(Br)c(Nc3ccc4nccnc4c3NS(C)(=O)=O)n2)c(OC)cc1N1CCC(N2CCN(C(=O)C3CCN(c4ccc5c(c4)CN(C4CCC(=O)NC4=O)C5=O)CC3)CC2)CC1 (stereo not shown) [Compound 10, N-(6-((5-bromo-2-((4-(4-(4-(1-(2-(2,6-dioxopiperidin-3-yl)-1-oxoisoindolin-5-yl)piperidine-4-carbonyl)piperazin-1-yl)piperidin-1-yl)-5-ethyl-2-methoxyphenyl)amino)pyrimidin-4-yl)amino)quinoxalin-5-yl)methanesulfonamide] |  |  |  |  |  | 72.7 nM | > 1000 nM | 20 nM | 1.21 nM | > 1000 nM | 9.6 nM
CCc1cc(Nc2ncc(Br)c(Nc3ccc4nccnc4c3NS(C)(=O)=O)n2)c(OC)cc1N1CCC(N2CCN(C3CCN(c4ccc5c(c4)CN(C4CCC(=O)NC4=O)C5=O)CC3)CC2)CC1 (stereo not shown) [Compound 49, N-(6-((5-bromo-2-((4-(4-(4-(1-(2-(2,6-dioxopiperidin-3-yl)-1-oxoisoindolin-5-yl)piperidin-4-yl)piperazin-1-yl)piperidin-1-yl)-5-ethyl-2-methoxyphenyl)amino)pyrimidin-4-yl)amino)quinoxalin-5-yl)methanesulfonamide] |  |  |  |  |  | 32.7 nM | ≥ 1000 nM | 19.7 nM | 2.36 nM | > 1000 nM | 4.43 nM

Further lines, with some results ahead:

GI50 (HCC827_DTC) | GI50 (A431; Table 8) | GI50 (HCC827_LTC) | GI50 (NCI-H2073) | GI50 (HCC827) | SMILES | GI50 (BaF3_ASV) | GI50 (A431; Table 6, CellTiter-Glo) | DC50 [1] | DC50 [2] | DC50 (A431 (EGFR_WT)) | GI50 (BaF3_DTC)
7.7 nM | > 3000 nM | 3.57 nM | > 3000 nM | 2.72 nM | COc1cc(N2CCC(N3CCN(CC4CCN(c5ccc6c(c5)C(=O)N(C5CCC(=O)NC5=O)C6=O)CC4)CC3)CC2)c(-c2cnn(C)c2)cc1Nc1ncc(Br)c(Nc2ccc3nccnc3c2NS(C)(=O)=O)n1 (stereo not shown) [Compound 85, N-(6-((5-bromo-2-((4-(4-(4-((1-(2-(2,6-dioxopiperidin-3-yl)-1,3-dioxoisoindolin-5-yl)piperidin-4-yl)methyl)piperazin-1-yl)piperidin-1-yl)-2-methoxy-5-(1-methyl-1H-pyrazol-4-yl)phenyl)amino)pyrimidin-4-yl)amino)quinoxalin-5-yl)methanesulfonamide] |  |  |  |  |  | 
30.8 nM | > 3000 nM | 9.38 nM | > 3000 nM | 2.82 nM | COc1cc(N2CCC(N3CCN(c4ccc5c(c4)C(=O)N(C4CCC(=O)NC4=O)C5=O)CC3)CC2)c(-c2cnn(C)c2)cc1Nc1ncc(Br)c(Nc2ccc3nccnc3c2NS(C)(=O)=O)n1 (stereo not shown) [Compound 82, N-(6-((5-bromo-2-((4-(4-(4-(2-(2,6-dioxopiperidin-3-yl)-1,3-dioxoisoindolin-5-yl)piperazin-1-yl)piperidin-1-yl)-2-methoxy-5-(1-methyl-1H-pyrazol-4-yl)phenyl)amino)pyrimidin-4-yl)amino)quinoxalin-5-yl)methanesulfonamide] |  |  |  |  |  | 
10.7 nM | > 3000 nM | 3.06 nM | > 3000 nM | 1.18 nM | COc1cc(N2CCN(CC3CCN(c4ccc5c(c4)C(=O)N(C4CCC(=O)NC4=O)C5=O)CC3)CC2)c(-c2cnn(C)c2)cc1Nc1ncc(Br)c(Nc2ccc3nccnc3c2NS(C)(=O)=O)n1 (stereo not shown) [Compound 84, N-(6-((5-bromo-2-((4-(4-((1-(2-(2,6-dioxopiperidin-3-yl)-1,3-dioxoisoindolin-5-yl)piperidin-4-yl)methyl)piperazin-1-yl)-2-methoxy-5-(1-methyl-1H-pyrazol-4-yl)phenyl)amino)pyrimidin-4-yl)amino)quinoxalin-5-yl)methanesulfonamide] |  |  |  |  |  | 
19.4 nM | > 3000 nM | 8.58 nM | > 3000 nM | 5.51 nM | COc1cc(N2CCC(CN3CCN(c4ccc5c(c4)C(=O)N(C4CCC(=O)NC4=O)C5=O)CC3)CC2)c(-c2cnn(C)c2)cc1Nc1ncc(Br)c(Nc2ccc3nccnc3c2NS(C)(=O)=O)n1 (stereo not shown) [Compound 83, N-(6-((5-bromo-2-((4-(4-((4-(2-(2,6-dioxopiperidin-3-yl)-1,3-dioxoisoindolin-5-yl)piperazin-1-yl)methyl)piperidin-1-yl)-2-methoxy-5-(1-methyl-1H-pyrazol-4-yl)phenyl)amino)pyrimidin-4-yl)amino)quinoxalin-5-yl)methanesulfonamide] |  |  |  |  |  | 
